Measurements published in PubChem BioAssay AID248 (DTP/NCI, 2004).
Where “and” joins values, the source holds several entries; their conditions need not be identical. Equal values may be shown once. Toxic doses and inconclusive results are not listed.

Test system: L1210 leukemia ip in BDF1 mice, survival T/C
Assay: NCI In Vivo Anticancer Drug Screen. Data for tumor model L1210 Leukemia (intraperitoneal) in B6D2F1 (BDF1) mice
Settings: endpoint: mean survival time, higher = longer survival
In short: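 Mice bearing the transplanted tumor received compound or vehicle. Survival of the treated group was divided by that of the vehicle-treated control group to give the ratio.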

O=C(Nc1ccc(Cl)cc1[N+](=O)[O-])Oc1ccc(-c2ccccc2)cc1
T/C (dose: 100.0 mg/kg/injection, schedule: Q01DX001 (ip), vehicle: saline with Tween-80): 97 % of control
T/C (dose: 100.0 mg/kg/injection, schedule: Q01DX009 (ip), vehicle: saline with Tween-80): 94 % of control and 103 % of control
T/C (dose: 100.0 mg/kg/injection, schedule: Q04DX002 (ip), vehicle: saline with Tween-80): 97 % of control and 91 % of control
T/C (dose: 100.0 mg/kg/injection, schedule: Q04DX003 (ip), vehicle: saline with Tween-80): 108 % of control
T/C (dose: 200.0 mg/kg/injection, schedule: Q01DX001 (ip), vehicle: saline with Tween-80): 100 % of control
T/C (dose: 200.0 mg/kg/injection, schedule: Q01DX009 (ip), vehicle: saline with Tween-80): 92 % of control
T/C (dose: 200.0 mg/kg/injection, schedule: Q04DX002 (ip), vehicle: saline with Tween-80): 102 % of control and 90 % of control
T/C (dose: 200.0 mg/kg/injection, schedule: Q04DX003 (ip), vehicle: saline with Tween-80): 107 % of control
T/C (dose: 400.0 mg/kg/injection, schedule: Q01DX001 (ip), vehicle: saline with Tween-80): 89 % of control
T/C (dose: 400.0 mg/kg/injection, schedule: Q01DX009 (ip), vehicle: saline with Tween-80): 106 % of control and 92 % of control
T/C (dose: 400.0 mg/kg/injection, schedule: Q04DX002 (ip), vehicle: saline with Tween-80): 103 % of control and 91 % of control
T/C (dose: 400.0 mg/kg/injection, schedule: Q04DX003 (ip), vehicle: saline with Tween-80): 95 % of control

CN(C)c1ccc(/C=C2\CCC/C(=C\c3ccc(N(C)C)cc3)C2=O)cc1
T/C (dose: 100.0 mg/kg/injection, schedule: Q04DX003 (ip), vehicle: Klucel (hydroxypropylcellulose) (HPC)): 96 % of control
T/C (dose: 200.0 mg/kg/injection, schedule: Q04DX003 (ip), vehicle: Klucel (hydroxypropylcellulose) (HPC)): 96 % of control
T/C (dose: 400.0 mg/kg/injection, schedule: Q04DX003 (ip), vehicle: Klucel (hydroxypropylcellulose) (HPC)): 92 % of control

CC1CCOS(=O)O1 (stereo unspecified)
T/C (dose: 20.0 mg/kg/injection, schedule: Q01DX010 (ip), vehicle: saline): 96 % of control and 98 % of control
T/C (dose: 24.0 mg/kg/injection, schedule: Q01DX Z (ip), vehicle: carboxymethylcellulose (CMC)): 104 % of control and 92 % of control
T/C (dose: 36.0 mg/kg/injection, schedule: Q01DX Z (ip), vehicle: carboxymethylcellulose (CMC)): 95 % of control and 109 % of control
T/C (dose: 40.0 mg/kg/injection, schedule: Q01DX010 (ip), vehicle: saline): 95 % of control and 96 % of control
T/C (dose: 50.0 mg/kg/injection, schedule: Q01DX001 (ip), vehicle: saline): 98 % of control
T/C (dose: 54.0 mg/kg/injection, schedule: Q01DX Z (ip), vehicle: carboxymethylcellulose (CMC)): 101 % of control and 111 % of control
T/C (dose: 80.0 mg/kg/injection, schedule: Q01DX010 (ip), vehicle: saline): 98 % of control and 104 % of control
T/C (dose: 81.0 mg/kg/injection, schedule: Q01DX Z (ip), vehicle: carboxymethylcellulose (CMC)): 96 % of control and 104 % of control
T/C (dose: 100.0 mg/kg/injection, schedule: Q01DX001 (ip), vehicle: saline): 98 % of control and 102 % of control
T/C (dose: 200.0 mg/kg/injection, schedule: Q01DX001 (ip), vehicle: saline): 104 % of control

CCN(CC)c1ccc(S(=O)(=O)NC(=O)OC)cc1
T/C (dose: 100.0 mg/kg/injection, schedule: Q04DX002 (ip), vehicle: Klucel (hydroxypropylcellulose) (HPC)): 98 % of control
T/C (dose: 200.0 mg/kg/injection, schedule: Q04DX002 (ip), vehicle: Klucel (hydroxypropylcellulose) (HPC)): 112 % of control
T/C (dose: 400.0 mg/kg/injection, schedule: Q04DX002 (ip), vehicle: Klucel (hydroxypropylcellulose) (HPC)): 112 % of control

O=NN(CCCl)C(=O)Nc1ccc(I)cc1
T/C (dose: 8.0 mg/kg/injection, schedule: Q01DX009 (ip), vehicle: carboxymethylcellulose (CMC)): 121 % of control
T/C (dose: 8.4 mg/kg/injection, schedule: Q01DX009 (ip), vehicle: carboxymethylcellulose (CMC)): 112 % of control
T/C (dose: 12.0 mg/kg/injection, schedule: Q01DX009 (ip), vehicle: carboxymethylcellulose (CMC)): 112 % of control
T/C (dose: 17.0 mg/kg/injection, schedule: Q01DX001 (ip), vehicle: carboxymethylcellulose (CMC)): 117 % of control
T/C (dose: 17.7 mg/kg/injection, schedule: Q01DX001 (ip), vehicle: carboxymethylcellulose (CMC)): 119 % of control
T/C (dose: 26.6 mg/kg/injection, schedule: Q01DX001 (ip), vehicle: carboxymethylcellulose (CMC)): 122 % of control
T/C (dose: 29.0 mg/kg/injection, schedule: Q01DX009 (ip), vehicle: carboxymethylcellulose (CMC)): 150 % of control and 154 % of control
T/C (dose: 44.0 mg/kg/injection, schedule: Q01DX009 (ip), vehicle: carboxymethylcellulose (CMC)): 124 % of control
T/C (dose: 60.0 mg/kg/injection, schedule: Q01DX001 (ip), vehicle: carboxymethylcellulose (CMC)): 119 % of control
T/C (dose: 66.0 mg/kg/injection, schedule: Q01DX009 (ip), vehicle: carboxymethylcellulose (CMC)): 121 % of control and 90 % of control
T/C (dose: 89.0 mg/kg/injection, schedule: Q01DX001 (ip), vehicle: carboxymethylcellulose (CMC)): 153 % of control
T/C (dose: 100.0 mg/kg/injection, schedule: Q01DX009 (ip), vehicle: carboxymethylcellulose (CMC)): 98 % of control
T/C (dose: 200.0 mg/kg/injection, schedule: Q01DX001 (ip), vehicle: carboxymethylcellulose (CMC)): 186 % of control
